Assays:
[1] = test system: ERK and p38 in colon carcinoma cells; parameters: method as in PMID 21170925; conditions: cited from earlier work
[2] = Pharmacokinetics of decursin in plasma after oral administration of RAGE; assay type: in vivo, SD rats
Procedure: Quantification of decursin was performed using an Accela LC system (Thermo Fisher Scientific; MA, USA) equipped with an autosampler, degasser, and quaternary solvent pump. Decursin and IS were separated on a Hypersil GOLD C18 column (2.1 mm × 100 mm, 1.9 μm; Thermo Fisher Scientific, MA, USA) at 35℃. The flow rate was set at 300 μL/min with an injection volume of 5 μL. The mobile phase consisted of water (containing 0.1% formic acid, A) and acetonitrile (B) and the gradient elution applied was as follows: 30–60% (B) for 0–4 min, 60% (B) for 0.5 min, and then re-equilibrated to 30% (B) until the end of the analysis. An LCQ Fleet ion-trap mass spectrometer (Thermo Fisher Scientific; MA, USA) was used to detect compounds in the eluent using the electrospray ionization source in the positive-ion mode. MS conditions were as follows: sheath gas (nitrogen), 50 arbitrary units; auxiliary gas (nitrogen), 20 arbitrary units; spray voltage, 5.0 kV; capillary temperature, 300℃; and capillary voltage, 30.0 V. Quantification of the compound was performed in the selective ion monitoring mode at 329 m/z [M+H]^+ for decursin and 415 m/z [M+H]^+ for the IS. Data was processed using Excalibur (v. 2.1.0; Thermo Fisher Scientific, CA, USA). Accurately weighed decursin and IS were dissolved in methanol at a concentration of 100 μg/mL, and the solution was diluted with methanol to prepare working solutions for the construction of the calibration curve. Calibration standards were prepared using 150 μL of blank rat plasma spiked with 10 μL of working solutions and 10 μL of IS solution, which was extracted using ethyl acetate. Plasma samples were prepared using a liquid–liquid extraction method. An aliquot of 150 μL plasma sample was spiked with 10 μL of IS solution and 10 μL of methanol, and 800 μL of ethyl acetate was added. Extraction of decursin and IS was performed by vortex mixing for 2 min at 25℃, followed by centrifugation at 704 × g for 10 min at 20℃. The upper layer (ethyl acetate) was then transferred to a clean 1.5 mL polypropylene tube and evaporated using a nitrogen gas blowing concentrator (MGS–2200; EYELA, Miyagi, Japan). The residue obtained after evaporation was reconstituted in 100 μL of methanol, vortex mixed for 2 min, and centrifuged at 704 × g for 10 min at 20℃. The supernatant was transferred to a glass vial and a 5 μL aliquot was injected into the UPLC–MS/MS system. […] Blood samples ([…]) were collected from a jugular vein in heparinized tubes before the administration, and 0.17, 0.5, 1, 2, 4, 6, 8, 12, 24, or 48 h after intragastric administration. Collected blood samples were immediately centrifuged at 704 × g for 10 min, and 150 μL aliquots of supernatant plasma were transferred to clean tubes and stored at -20 °C until analysis. The pharmacokinetic parameters of decursin were calculated using plasma concentration of decursin versus time data using PKSolver (a free add-in program for Microsoft Excel).

[3] = oral RAGE 100 mg/rat, mean ± SD, n = 6

Compound	activities of ERK and p38 [1]	half-life ([2]; SD, rat, after oral administration of RAGE, as restated in the discussion)	AUC(0-t) ([2]; oral RAGE 100 mg/rat, 0 to 48 h, mean ± SD, n = 6)	MRT last ([2]; oral RAGE 100 mg/rat, 0 to 48 h, mean ± SD, n = 6, read-out: MRT0-t)	concentration at 48 h ([2]; oral RAGE 100 mg/rat, last measured concentration, mean ± SD, n = 6, read-out: Clast)	AUC(0-inf) [2, 3]	Cmax [2, 3]	Tmax [2, 3]	half-life [2, 3]	MRT inf ([2]; oral RAGE 100 mg/rat, mean ± SD, n = 6, read-out: MRT0-∞)
CC(C)=CC(=O)O[C@H]1Cc2cc3ccc(=O)oc3cc2OC1(C)C [decursin]	inhibited	8.28 h	1190 ± 324 ng·h/mL	5.43 ± 0.581 h	2.62 ± 0.665 ng/mL	1220 ± 326 ng·h/mL	408 ± 85.7 ng/mL	1.75 ± 1.25 h	8.28 ± 0.538 h	6.9 ± 0.954 h
CC1(C)Oc2cc3oc(=O)ccc3cc2C[C@@H]1O [decursinol]	inhibited	–	–	–	–	–	–	–	–	–

Source: publication PMC7509924, “Neuroprotective effect of Angelica gigas root in a mouse model of ischemic brain injury through MAPK signaling pathway regulation” (Chinese Medicine, 2020)
